{"source": "patent US8614236B2", "about": "(University of Washington, priority 2006, dated 2013)", "key": {"Beagle dogs [1]": {"system": "Beagle dogs", "test": "Dog study: pulmonary and systemic hemodynamics, hypoxic pulmonary vasoconstriction", "format": "in vivo", "conditions": "for MPAP and PVR during hypoxia (words): iv bolus + continuous infusion (AZ, benzolamide 2 mg/kg + 2 mg/kg/h; ethoxzolamide 1 mg/kg + 1 mg/kg/h); for CO, cardiac output / CVP, central venous pressure / HR, heart rate / MAP, mean arterial pressure / MPAP, mean pulmonary arterial pressure / PCWP, pulmonary capillary wedge pressure / SVR, systemic vascular resistance: iv bolus + continuous infusion", "description": "(§1) A total of 30 experiments were performed on six female Beagle dogs (body wt 14.3±0.3 kg). The dogs were kept under highly standardized conditions and received a standardized diet five days before the experiments. The preparation and catheterization of the conscious dog were performed according to former experiments as in Höhne C., et al., J Appl Physiol (2004), which is hereby incorporated by reference in its entirety. To permit spontaneous breathing through a low resistance circuit, a face mask was attached, which enclosed the dog's snout in a leak proof fashion. This custom made mask is equipped with a 2.5 cm ID connector to connect it to a ventilator set to CPAP mode (3 4 cmH20) (Servo900C; Siemens-Elema, Erlangen/Germany).\n(§2) Six dogs were studied in five different protocols in randomized order:\n(§3) 4) Benzolamide intravenously: Bolus (2 mg/kg), followed by a continuous infusion of 2 mg·kg^−1·h^−1, a dosage which inhibits only renal and vascular endothelial extracellular CA, without affecting red cell CA as in Travis D. M., et al. J Pharmacol Exp Ther (1964), which is hereby incorporated by reference in its entirety. 5) Ethoxzolamide (Sigma-Aldrich, Steinheim/Germany) intravenously: Bolus ethoxzolamide (1 mg/kg), followed by a continuous infusion of 1 mg·kg^−1·h^−1.\n(§4) In control experiments, the dogs breathed room air (21% O2, 79% N2; normoxia) for one hour, followed by breathing a gas mixture containing 10% O2 and 90% N2 for two hours (hypoxia). The time course was the same for the CA inhibitor experiments, but F1O2 was reduced to 0.09 during the hypoxia period to match the arterial and alveolar PO2 of the control dogs, which otherwise would have been higher on 10% O2 as a result of the known ventilatory stimulant effect of all CA inhibitors. See Höhne C., et al., J Appl Physiol 97:515-521 (2004), which is hereby incorporated by reference in its entirety. The hemodynamic measurements (arterial blood pressure, heart rate, central venous pressure, pulmonary artery pressure, pulmonary capillary wedge pressure), minute ventilation, renal function data, time points for blood samples for blood gases, actual bicarbonate, base excess, plasma electrolytes and hormones, measurements of plasma and urinary values were according to former studies. See Höhne C., et al., J Appl Physiol 90:1842-1848 (2001), which is hereby incorporated by reference in its entirety.\n(§5) Values are given as means±SEM (n=6). For intra-group comparisons a general linear model of analysis of variance (GLM-ANOVA) for repeated measures was applied (NCSS97/PASS 2000, Saugus/MA, USA). Post-hoc testing of means was performed with Student's t-test. Level of significance for error of first order was adjusted according to Holm's procedure. Statistical significance was assumed at p<0.05."}, "Beagle dogs [2]": {"system": "Beagle dogs", "test": "Dog study: plasma hormones, electrolytes and renal function", "format": "in vivo", "conditions": "iv bolus + continuous infusion", "description": "as §1, §2, §3, §4, §5"}}}
{"smiles": "NS(=O)(=O)c1nnc(NS(=O)(=O)c2ccccc2)s1", "note": "[BZ, benzolamide]", "values": [{"measurement": "MPAP and PVR during hypoxia (words)", "setting": "Beagle dogs [1]; listed as Benzolamide", "value": "did not inhibit"}, {"measurement": "MPAP and PVR during hypoxia (words)", "setting": "Beagle dogs [1]; listed as benzolamide", "value": "increased"}, {"measurement": "CO, cardiac output", "setting": "Beagle dogs [1]; hypoxia 2nd h", "value": "2.6 ± 0.2", "unit": "L/min"}, {"measurement": "CVP, central venous pressure", "setting": "Beagle dogs [1]; hypoxia 2nd h", "value": "1.5 ± 0.2", "unit": "cmH2O"}, {"measurement": "HR, heart rate", "setting": "Beagle dogs [1]; hypoxia 2nd h", "value": "94 ± 10", "unit": "beats/min"}, {"measurement": "MAP, mean arterial pressure", "setting": "Beagle dogs [1]; hypoxia 2nd h", "value": "109 ± 6", "unit": "mmHg"}, {"measurement": "MPAP, mean pulmonary arterial pressure", "setting": "Beagle dogs [1]; hypoxia 2nd h", "value": "18 ± 1", "unit": "mmHg"}, {"measurement": "PCWP, pulmonary capillary wedge pressure", "setting": "Beagle dogs [1]; hypoxia 2nd h", "value": "3.2 ± 0.4", "unit": "cm H2O"}, {"measurement": "SVR, systemic vascular resistance", "setting": "Beagle dogs [1]; hypoxia 2nd h", "value": "3272 ± 113", "unit": "dyn · s^1 · cm^−5"}, {"measurement": "CO, cardiac output", "setting": "Beagle dogs [1]; hypoxia 3rd h", "value": "2.7 ± 0.2", "unit": "L/min"}, {"measurement": "CVP, central venous pressure", "setting": "Beagle dogs [1]; hypoxia 3rd h", "value": "1.2 ± 0.2", "unit": "cmH2O"}, {"measurement": "HR, heart rate", "setting": "Beagle dogs [1]; hypoxia 3rd h", "value": "90 ± 8", "unit": "beats/min"}, {"measurement": "MAP, mean arterial pressure", "setting": "Beagle dogs [1]; hypoxia 3rd h", "value": "109 ± 9", "unit": "mmHg"}, {"measurement": "MPAP, mean pulmonary arterial pressure", "setting": "Beagle dogs [1]; hypoxia 3rd h", "value": "19 ± 1", "unit": "mmHg"}, {"measurement": "PCWP, pulmonary capillary wedge pressure", "setting": "Beagle dogs [1]; hypoxia 3rd h", "value": "3.8 ± 0.3", "unit": "cm H2O"}, {"measurement": "SVR, systemic vascular resistance", "setting": "Beagle dogs [1]; hypoxia 3rd h", "value": "3227 ± 83", "unit": "dyn · s^1 · cm^−5"}, {"measurement": "CO, cardiac output", "setting": "Beagle dogs [1]; normoxia 1st h", "value": "2.7 ± 0.2", "unit": "L/min"}, {"measurement": "CVP, central venous pressure", "setting": "Beagle dogs [1]; normoxia 1st h", "value": "1.8 ± 0.3", "unit": "cmH2O"}, {"measurement": "HR, heart rate", "setting": "Beagle dogs [1]; normoxia 1st h", "value": "73 ± 6", "unit": "beats/min"}, {"measurement": "MAP, mean arterial pressure", "setting": "Beagle dogs [1]; normoxia 1st h", "value": "102 ± 5", "unit": "mmHg"}, {"measurement": "MPAP, mean pulmonary arterial pressure", "setting": "Beagle dogs [1]; normoxia 1st h", "value": "12 ± 1", "unit": "mmHg"}, {"measurement": "PCWP, pulmonary capillary wedge pressure", "setting": "Beagle dogs [1]; normoxia 1st h", "value": "3.2 ± 0.2", "unit": "cm H2O"}, {"measurement": "SVR, systemic vascular resistance", "setting": "Beagle dogs [1]; normoxia 1st h", "value": "3101 ± 376", "unit": "dyn · s^1 · cm^−5"}, {"measurement": "plasma renin activity during hypoxia", "setting": "Beagle dogs [2]", "value": "did not change"}, {"measurement": "GFR, glomerular filtration rate", "setting": "Beagle dogs [2]; hypoxia 2nd h", "value": "3.0 ± 0.2", "unit": "mL/min/kg"}, {"measurement": "PK, plasma potassium concentration", "setting": "Beagle dogs [2]; hypoxia 2nd h", "value": "2.9 ± 0.1", "unit": "mM"}, {"measurement": "UV, urine volume", "setting": "Beagle dogs [2]; hypoxia 2nd h", "value": "0.104 ± 0.023", "unit": "mL/min/kg"}, {"measurement": "GFR, glomerular filtration rate", "setting": "Beagle dogs [2]; hypoxia 3rd h", "value": "3.2 ± 0.2", "unit": "mL/min/kg"}, {"measurement": "PK, plasma potassium concentration", "setting": "Beagle dogs [2]; hypoxia 3rd h", "value": "2.8 ± 0.1", "unit": "mM"}, {"measurement": "UV, urine volume", "setting": "Beagle dogs [2]; hypoxia 3rd h", "value": "0.065 ± 0.015", "unit": "mL/min/kg"}, {"measurement": "GFR, glomerular filtration rate", "setting": "Beagle dogs [2]; normoxia 1st h", "value": "2.9 ± 0.2", "unit": "mL/min/kg"}, {"measurement": "PK, plasma potassium concentration", "setting": "Beagle dogs [2]; normoxia 1st h", "value": "3.0 ± 0.1", "unit": "mM"}, {"measurement": "UV, urine volume", "setting": "Beagle dogs [2]; normoxia 1st h", "value": "0.066 ± 0.007", "unit": "mL/min/kg"}]}
